From patent publication US4820717A, “Antimicrobial aromatic derivatives substituted by an (omega amino) alkanol group and compositions containing them” (priority 1985, dated 1989)
Values after ≈ are worked out from the molar mass of the structure shown.

Key:
[1] = system: Escherichia Coli CNCM 54125; assay: Bactericidal activity (MBC), strain 1; type: cell-based; conditions: 20 min, strain 1, 20 minutes of contact, read-out: Minimum bactericidal concentration (MBC)
From the text: (§1) The bactericidal activity of the products according to the invention has been analyzed on various strains by the method described hereafter:
(§2) A bacterial inoculum is placed in contact with different dilutions of the product to be tested, and this for a limited period of time. At the end of contact, an aliquot part of the mixture bacterial suspension/product is deposited on the surface of an agar culture medium containing an agent neutralizing the antibacterial activity of the product. The bactericidal concentration retained is the smallest concentration of the product from which bacteria stop growing. Said concentration is expressed in μg/ml.
(§3) The bacterial strains selected for the analysis are:
1--Escherichia Coli CNCM 54125;
(§4) The second strain is supported on a Worgel Fergusson medium, the other strains being supported on Tryptic Soy Agar-Difco (TSA) commercialized by Difco.
(§5) After a 24-hour culture period at 37° C., the microbial growth is collected by means of glass beads and of 10 ml of diluent containing 1 g of tryptone and 8.5 g of sodium chloride in 1000 ml of distilled water. The formed suspension is stirred and the percentage of light transmission at 620 nm is measured with a spectrophotometer:
(§6) The bacterial inoculum corresponds to a 1/20th dilution of this bacterial suspension.
(§7) Plates equipped with cupules receive different dilutions of the product to be analyzed. These dilutions are placed in contact with the different bacterial suspensions by means of a multiple-center inoculator. After 20 minutes of contact, aliquot parts are transferred by means of said inoculator on the surface of an agar medium (TSA) in Petri dishes, containing an activity-neutralizing agent, namely 20 g of lubrol W, 25 g of Tween 80 and 2.5 g of sodium thiosulfate in 1000 ml of TSA (Difco). The efficiency of the neutralizing agent is controlled for each product to be analyzed by depositing on the surface of the culture medium an aliquot part of the dilution of the product to be analyzed. After drying, the corresponding inoculum is deposited in the same place. An inoculum control is performed on an agar medium with or without neutralizing agent. Readings are taken after 48 hours of incubation at 37° C.

[2] = system: Encapsulated klebsiella pneumoniae R030; assay: Bactericidal activity (MBC), strain 2; type: cell-based; conditions: 20 min, strain 2, 20 minutes of contact, read-out: Minimum bactericidal concentration (MBC)
From the text: as §1, §2, §3
2--Encapsulated klebsiella pneumoniae R030;
as §4, §5, §6, §7

[3] = system: Pseudomonas aeruginosa CNCM A22; assay: Bactericidal activity (MBC), strain 3; type: cell-based; conditions: CNCMA22, 20 min, strain 3, 20 minutes of contact, read-out: Minimum bactericidal concentration (MBC)
From the text: as §1, §2, §3
3--Pseudomonas aeruginosa CNCM A22;
as §4, §5, §6, §7

[4] = system: Streptococcus faecalis CNCM 5855; assay: Bactericidal activity (MBC), strain 4; type: cell-based; conditions: Enterococcus faecalis, CNCM5855, 20 min; strain 4, 20 minutes of contact; read-out: Minimum bactericidal concentration (MBC)
From the text: as §1, §2, §3
4--Streptococcus faecalis CNCM 5855;
as §4, §5, §6, §7

[5] = system: Staphylococcus aureus CNCM 53154; assay: Bactericidal activity (MBC), strain 5; type: cell-based; conditions: CNCM53154, 20 min, strain 5, 20 minutes of contact, read-out: Minimum bactericidal concentration (MBC)
From the text: as §1, §2, §3
5--Staphylococcus aureus CNCM 53154.
as §4, §5, §6, §7

[6] = Acute toxicity by oral route in mice; conditions: mouse, in vivo, per os, male CD1 mice, 14 days observation
Experimental: Acute toxicity was tested by oral route in mice. This test was carried out with male mice of CD1 strain, obtained from the Charles Reever breeding farm. Each batch was composed of 5 animals of body weight varying between 24 and 30 g kept in the same cage. The animals were kept fasting for 6 hours before the treatment. For every test, the product, placed in suspension in a 10% solution of gum arabic, was administered by forcible feeding with an oesophageal probe. Food was then served to the animals 4 hours after the forcible feeding and the animals were kept under observation for a period of 14 days after the administration. During that period, the death rate is recorded for each batch of animals used in the experiment and, wherever possible, the LD50 is determined by the method of J. T. Litchfield and F. Wilcoxon, J. Pharmacol. 1949, 95, 99-113.
The results are given in mg of substance tested per kg of body weight. They are compiled in Table III below.

[7] = system: Candida albicans CNCM 1180; assay: Antifungal activity (MFC), strain 1; type: cell-based; conditions: 20 min; yeast strain 1; read-out: Minimum fongicidal concentration (MFC)
From the text: as §2, §7
(§8) The antifungal activity of the products according to the invention was also determined with the aforedescribed method.
(§9) The fungal strains selected for the analysis are:
1--Candida albicans CNCM 1180;
(§10) These strains are supported on a Sabouraud Dextrose agar medium commercialized by Difco; the technique used is the same as that used in the analysis of the antibacterial activity. After 48 hours of culture at 37° C., the microbial growth is collected with glass beads and 5 ml of diluent containing 1 g of tryptone and 8.5 g of sodium chloride in 1000 ml of distilled water; 5 ml of the diluent are then added. […] A 1/100th dilution of this suspension, observed between slides under a microscope 40-lens, should show 10 cells per frame, this corresponding to 1,000,000 yeasts per ml.

[8] = system: Candida tropicalis 3834; assay: Antifungal activity (MFC), strain 2; type: cell-based; conditions: 20 min; yeast strain 2; read-out: Minimum fongicidal concentration (MFC)
From the text: as §2, §7, §8, §9
2--Candida tropicalis 3834;
as §10

[9] = system: Candida parakruzei 3918; assay: Antifungal activity (MFC), strain 3; type: cell-based; conditions: 20 min; yeast strain 3; read-out: Minimum fongicidal concentration (MFC)
From the text: as §2, §7, §8, §9
3--Candida parakruzei 3918;
as §10

[10] = system: Torulopsis glabrata 072023; assay: Antifungal activity (MFC), strain 4; type: cell-based; conditions: 20 min; yeast strain 4; read-out: Minimum fongicidal concentration (MFC)
From the text: as §2, §7, §8, §9, §10

## CCN(CC)CCC(CO)c1cccc2ccccc12.Cl (stereo not shown) [SR 42 989 A, 4-(N,N-diethylamino)-2-(1-naphthyl)-butanol hydrochloride]
[1]
  MBC: 1500 µg/mL
[2]
  MBC: 1500 µg/mL
[3]
  MBC: 1500 µg/mL
[4]
  MBC: 2000 µg/mL
[5]
  MBC: 1500 µg/mL
[6]
  LD50 at 336 h: 300 to 400 mg/kg

## CN(C)CCCC(CO)c1cccc2ccccc12 (stereo not shown) [SR 42 994 A]
[1]
  MBC: 1000 µg/mL (≈ 3.89 mM)
[2]
  MBC: 800 µg/mL (≈ 3.11 mM)
[3]
  MBC: 1000 µg/mL (≈ 3.89 mM)
[4]
  MBC: 1000 µg/mL (≈ 3.89 mM)
[5]
  MBC: 1000 µg/mL (≈ 3.89 mM)
[7]
  MFC: 500 µg/mL (≈ 1.94 mM)
[8]
  MFC: 500 µg/mL (≈ 1.94 mM)
[9]
  MFC: 500 µg/mL (≈ 1.94 mM)
[10]
  MFC: 5000 µg/mL (≈ 19.4 mM)
[6]
  LD50 at 336 h: 750 to 1000 mg/kg

## OCC(CCN1CCCC1)c1cccc2ccccc12 (stereo not shown) [SR 43 063 A]
[1]
  MBC: 2000 µg/mL (≈ 7.42 mM)
[2]
  MBC: 1000 µg/mL (≈ 3.71 mM)
[3]
  MBC: 1000 µg/mL (≈ 3.71 mM)
[4]
  MBC: 2000 µg/mL (≈ 7.42 mM)
[5]
  MBC: 1000 µg/mL (≈ 3.71 mM)
[6]
  LD50 at 336 h: 300 to 400 mg/kg

## OCC(CCCN1CCCCC1)c1cccc2ccccc12 (stereo not shown) [SR 43 087 A]
[1]
  MBC: 1500 µg/mL (≈ 5.04 mM)
[2]
  MBC: 1000 µg/mL (≈ 3.36 mM)
[3]
  MBC: 800 µg/mL (≈ 2.69 mM)
[4]
  MBC: 2000 µg/mL (≈ 6.72 mM)
[5]
  MBC: 800 µg/mL (≈ 2.69 mM)
[7]
  MFC: 1000 µg/mL (≈ 3.36 mM)
[8]
  MFC: 1000 µg/mL (≈ 3.36 mM)
[9]
  MFC: 1000 µg/mL (≈ 3.36 mM)
[10]
  MFC: 5000 µg/mL (≈ 16.8 mM)

## CC(C)N(CCC(CO)c1cccc2ccccc12)C(C)C (stereo not shown) [SR 43 121 A]
[1]
  MBC: 1500 µg/mL (≈ 5.01 mM)
[2]
  MBC: 1500 µg/mL (≈ 5.01 mM)
[3]
  MBC: 1500 µg/mL (≈ 5.01 mM)
[4]
  MBC: 800 µg/mL (≈ 2.67 mM)
[5]
  MBC: 800 µg/mL (≈ 2.67 mM)
[6]
  LD50 at 336 h: 300 to 400 mg/kg

## OCC(CCN1CCCCC1)c1ccc2ccccc2c1 (stereo not shown) [SR 43 154 A]
[1]
  MBC: 2000 µg/mL (≈ 7.06 mM)
[2]
  MBC: 1500 µg/mL (≈ 5.29 mM)
[3]
  MBC: 800 µg/mL (≈ 2.82 mM)
[4]
  MBC: 1500 µg/mL (≈ 5.29 mM)
[5]
  MBC: 1000 µg/mL (≈ 3.53 mM)

## OCC(CCN1CCCCCC1)c1cccc2ccccc12 (stereo not shown) [SR 43 155 A]
[1]
  MBC: 500 µg/mL (≈ 1.68 mM)
[2]
  MBC: 500 µg/mL (≈ 1.68 mM)
[3]
  MBC: 200 µg/mL (≈ 0.672 mM)
[4]
  MBC: 500 µg/mL (≈ 1.68 mM)
[5]
  MBC: 500 µg/mL (≈ 1.68 mM)
[7]
  MFC: 500 µg/mL (≈ 1.68 mM)
[8]
  MFC: 500 µg/mL (≈ 1.68 mM)
[9]
  MFC: 500 µg/mL (≈ 1.68 mM)
[10]
  MFC: 2000 µg/mL (≈ 6.72 mM)
[6]
  LD50 at 336 h: < 500 mg/kg

## CCC(CO)(CCN1CCCCC1)c1cccc2ccccc12.Cl (stereo not shown) [SR 43 245 A, 2-ethyl-2-(1-naphthyl)-4-piperidino-butanol hydrochloride]
[1]
  MBC: 1500 µg/mL
[2]
  MBC: 1000 µg/mL
[3]
  MBC: 800 µg/mL
[4]
  MBC: 1500 µg/mL
[5]
  MBC: 1000 µg/mL

## OCC(CCN1CCc2ccccc2C1)c1cccc2ccccc12 (stereo not shown) [SR 43 247 A]
[1]
  MBC: 300 µg/mL (≈ 0.905 mM)
[2]
  MBC: 300 µg/mL (≈ 0.905 mM)
[3]
  MBC: 300 µg/mL (≈ 0.905 mM)
[4]
  MBC: 300 µg/mL (≈ 0.905 mM)
[5]
  MBC: 500 µg/mL (≈ 1.51 mM)
[7]
  MFC: 1000 µg/mL (≈ 3.02 mM)
[8]
  MFC: 500 µg/mL (≈ 1.51 mM)
[9]
  MFC: 1000 µg/mL (≈ 3.02 mM)
[10]
  MFC: 2000 µg/mL (≈ 6.03 mM)

## CC1CCN(CCCC(CO)c2cccc3ccccc23)CC1 (stereo not shown) [SR 43 290 A]
[1]
  MBC: 1500 µg/mL (≈ 4.82 mM)
[2]
  MBC: 800 µg/mL (≈ 2.57 mM)
[3]
  MBC: 800 µg/mL (≈ 2.57 mM)
[4]
  MBC: 4000 µg/mL (≈ 12.8 mM)
[5]
  MBC: 800 µg/mL (≈ 2.57 mM)

## CN1CCN(CCC(CO)c2cccc3ccccc23)CC1 (stereo not shown) [SR 43 291A, reference compound]
[1]
  MBC: 5000 µg/mL (≈ 16.8 mM)
[2]
  MBC: 3000 µg/mL (≈ 10.1 mM)
[3]
  MBC: 1000 µg/mL (≈ 3.35 mM)
[4]
  MBC: > 10000 µg/mL
[5]
  MBC: 8000 µg/mL (≈ 26.8 mM)

## CC1CCN(CCC(CO)c2cccc3ccccc23)CC1 (stereo not shown) [SR 43 382 A]
[1]
  MBC: 5000 µg/mL (≈ 16.8 mM)
[2]
  MBC: 2000 µg/mL (≈ 6.72 mM)
[3]
  MBC: 2000 µg/mL (≈ 6.72 mM)
[4]
  MBC: 5000 µg/mL (≈ 16.8 mM)
[5]
  MBC: 2000 µg/mL (≈ 6.72 mM)
[7]
  MFC: 5000 µg/mL (≈ 16.8 mM)
[8]
  MFC: 1000 µg/mL (≈ 3.36 mM)
[9]
  MFC: 2000 µg/mL (≈ 6.72 mM)
[10]
  MFC: 10000 µg/mL (≈ 33.6 mM)
